Results: ChEMBL document CHEMBL1641389, “Penasins A-E, long-chain cytotoxic sphingoid bases, from a marine sponge Penares sp” (J Nat Prod, 2010)
≈ marks a conversion by molar mass, not a printed value.

Legend:
P388 = assay: Cytotoxicity against mouse P388 cells after 96 hrs by MTT assay; format: functional, cell-based; conditions: P388, 96 h
HeLa = assay: Cytotoxicity against human HeLa cells after 96 hrs by MTT assay; format: functional, cell-based

Row | SMILES | IC50 (P388) | IC50 (HeLa)
1 | CCCCCCCCCCCCCCCC/C=C(\Cl)CC/C=C\CCCC[C@@H]1OC[C@H](N)[C@@H]1O [PENASIN B] | 50 µg/mL (≈ 100 µM) | 10 µg/mL (≈ 20.1 µM)
2 | CCCCCCCCCCCCCCCC/C=C\CC/C=C\CCCC[C@@H]1OC[C@H](N)[C@@H]1O [PENASIN] | 50 µg/mL (≈ 108 µM) | 10 µg/mL (≈ 21.6 µM)
